# Patent US7786142B2, “Heterocyclic compounds as pSTAT3/IL-6 inhibitors” (Orchid Research Laboratories, Ltd., priority 2005, dated 2010)
# Key:
# [1] = system: MDAMB-231/U 251; assay: Anti-cancer screen (MTT), MDAMB-231/U 251 cells; format: cell-based; conditions: MDAMB-231/U 251, 48 hours, concentrations tested 0.01-100 μM; for CC50: read-out: LC50 (the source's name)
# Protocol: (§1) Experimental drugs are screened for anti-cancer activity in three cell lines for their GI50, TGI and LC50 values (using five concentrations for each compound). The cell lines are maintained in DMEM containing 10% fetal bovine serum. 96 well micro titer plates are inoculated with cells in 100 μL for 24 hours at 37° C., 5% CO2, 95% air and 100% relative humidity. 5000 HCT116 cells/well, 5000 NCIH460 cells/well and 5000 U251 cells/well are plated. A separate plate with these cell lines is also inoculated to determine cell viability before the addition of the compounds (T0), (See Table I).
# (§2) Following 24-hours incubation, experimental drugs are added to the 96 well plates. Each plate contains one of the above cell lines and the following in triplicate: five different concentrations (0.01, 0.1, 1, 10 and 100 μM) of four different compounds, appropriate dilutions of a cytotoxic standard and control (untreated) wells. Compounds are dissolved in DMSO to make 20 mM stock solutions on the day of drug addition and frozen at −20° C. Serial dilutions of these 20 mM stock solutions are made in complete growth medium such that 100 μL of these drug solutions in medium, of final concentrations equaling 0.01, 0.1, 1, 10 and 100 μM can be added to the cells in triplicate. Standard drugs whose anti-cancer activity has been well documented and which are regularly used are Doxorubicin and SAHA, (See Table I).
# (§3) For T0 measurement, 24 hours after seeding the cells, 10 μL of 3-(4,5-Dimethyl-2-thiazolyl)-2,5-diphenyl-2H-tetrazolium (MTT) solution per well is added and incubation carried out for 3 hours at 37° C., 5% CO2, 95% air and 100% relative humidity, protected from light. Cells incubated with compounds for 48 hours are treated similarly except with the addition of 20 μL MTT solution per well and a subsequent incubation under the same conditions. After 3 hours of MTT incubation, well contents are aspirated carefully followed by addition of 150 μL DMSO per well. Plates are agitated to ensure solution of the formazan crystals in DMSO and absorbance read at 570 nm, (See Table I).
# (§4) Percent growth is calculated for each compound's concentration relative to the control and zero measurement wells (T0; viability right before compound addition). If a test well's O.D. value is greater than the T0 measurement for that cell line % Growth=(test−zero)/(control−zero)×100
# [2] = system: NCIH460, HCT116, MDAMB-231/U 251; assay: Anti-cancer screen, mean GI50 over the cell lines; format: cell-based
# Protocol: as §1, §2, §3, §4
# [3] = system: NCIH460 cells; assay: Anti-cancer screen (MTT), NCIH460 cells; format: cell-based; conditions: Homo sapiens, NCI-H460, NCIH460, 48 hours, concentrations tested 0.01-100 μM; for CC50: read-out: LC50 (the source's name)
# Protocol: as §1, §2, §3, §4
# [4] = system: HCT116 cells; assay: Anti-cancer screen (MTT), HCT116 cells; format: cell-based; conditions: Homo sapiens, HCT-116, HCT116, 48 hours, concentrations tested 0.01-100 μM
# Protocol: as §1, §2, §3, §4
Structure (SMILES),melting point,also measured
COc1ccc(CC(=O)N2CCN(CC(O)COc3cccc4[nH]c5ccccc5c34)CC2)cc1 (stereo not drawn),166 to 169 °C,–
O=C(Cc1c(F)c(F)c(F)c(F)c1F)N1CCN(CC(O)COc2cccc3[nH]c4ccccc4c23)CC1 (stereo not drawn),93 to 96 °C,–
"OC(COc1cccc2[nH]c3ccccc3c12)CN1CCNCC1 (stereo not drawn) [Example 3, 1-(9H-carbazol-4-yloxy)-3-piperazin-1-ylpropan-2-ol]",–,GI50 [1]: 55 µM; IC (TGI) [1]: 77 µM; CC50 [1]: > 100 µM; GI50 [2]: 29.7 µM; GI50 [3]: 27 µM; IC (TGI) [3]: 54 µM; CC50 [3]: 80 µM; GI50 [4]: 7 µM; IC (TGI) [4]: 36 µM; LC50 (concentration for 50% net cell kill relative to T0) [4]: 72 µM
"OC(COc1cccc2[nH]c3ccccc3c12)CN1CCc2sccc2C1 (stereo not drawn) [Example 4, 1-(9H-carbazol-4-yloxy)-3-(6,7-dihydrothieno[3,2-c]pyridin-5(4H)-yl)propan-2-ol]",–,GI50 [1]: 34 µM; IC (TGI) [1]: 59 µM; CC50 [1]: 84 µM; GI50 [2]: 28 µM; GI50 [3]: 18 µM; IC (TGI) [3]: 47 µM; CC50 [3]: 80 µM; GI50 [4]: 32 µM; IC (TGI) [4]: 57 µM; LC50 (concentration for 50% net cell kill relative to T0) [4]: 82 µM
"COc1cc(OC)c(CN2CCN(CC(O)COc3cccc4[nH]c5ccccc5c34)CC2)c(OC)c1 (stereo not drawn) [Example 34, 1-(9H-carbazol-4-yloxy)-3-[4-(2,4,6-trimethoxybenzyl)piperazin-1-yl]propan-2-ol]",119 to 122 °C,–
"O=C(c1ccco1)N1CCN(CC(O)COc2cccc3[nH]c4ccccc4c23)CC1 (stereo not drawn) [Example 37, 1-(9H-carbazol-4-yloxy)-3-[4-(2-furoyl)piperazin-1-yl]propan-2-ol]",85.1 to 89.1 °C,–
"O=C(c1cc2ccccc2[nH]1)N1CCN(CC(O)COc2cccc3[nH]c4ccccc4c23)CC1 (stereo not drawn) [Example 38, 1-(9H-carbazol-4-yloxy)-3-[4-(1H-indole-2-carbonyl)piperazin-1-yl]propan-2-ol]",215 to 218 °C,–
"O=C(c1cccs1)N1CCN(CC(O)COc2cccc3[nH]c4ccccc4c23)CC1 (stereo not drawn) [Example 39, 1-(9H-carbazol-4-yloxy)-3-[4-(thiophene-2-carbonyl)piperazin-1-yl]propan-2-ol]",80 to 83 °C,–
"O=C(c1ccc(-c2ccc([N+](=O)[O-])cc2)o1)N1CCN(CC(O)COc2cccc3[nH]c4ccccc4c23)CC1 (stereo not drawn) [Example 40, 1-(9H-carbazol-4-yloxy)-3-{4-[5-(4-nitrophenyl)-2-furoyl]piperazin-1 yl}propan-2-ol]",101 to 104 °C,–
"COc1ccc(C(=O)N2CCN(CC(O)COc3cccc4[nH]c5ccccc5c34)CC2)cc1OC (stereo not drawn) [Example 42, 1-(9H-carbazol-4-yloxy)-3-[4-(3,4-dimethoxybenzoyl)piperazin-1-yl]propan-2-ol]",98 to 101 °C,–
"O=C(c1cc2ccccc2o1)N1CCN(CC(O)COc2cccc3[nH]c4ccccc4c23)CC1 (stereo not drawn) [Example 54, 3-[4-(1-Benzofuran-2-ylcarbonyl)piperazin-1-yl]-1-(9H-carbazol-4-yloxy)propan-2-ol]",93 to 96 °C,–
"O=C(c1ccc2c(c1)OCO2)N1CCC(NCC(O)COc2cccc3[nH]c4ccccc4c23)CC1 (stereo not drawn) [Example 68, 3-{[1-(1,3-Benzodioxol-5-ylcarbonyl)piperidin-4-yl]amino}-1-(9H-carbazol-4-yloxy)propan-2-ol]",88 to 90 °C,–
"O=C(Cc1c(F)c(F)c(F)c(F)c1F)N1CCC(NCC(O)COc2cccc3[nH]c4ccccc4c23)CC1 (stereo not drawn) [Example 69, 1-(9H-carbazol-4-yloxy)-3-{[1-(pentafluorophenyl)acetylpiperidin-4-yl]amino}propan-2-ol]",80 to 83 °C,–
"CC(=O)c1ccc(S(=O)(=O)N2CCN(CC(O)COc3cccc4[nH]c5ccccc5c34)CC2)cc1 (stereo not drawn) [Example 75, 3-[4-(4-Acetylphenylsulfonyl)piperazin-1-yl]-1-(9H-carbazol-4-yloxy)propan-2-ol]",183 to 185 °C,–

# Second part, led by results:
melting point,Structure (SMILES),also measured
111 to 113 °C,O=C(Cc1ccc(O)c(F)c1)N1CCN(CC(O)COc2cccc3[nH]c4ccccc4c23)CC1 (stereo not drawn),–
79 to 81 °C,O=C(Cc1ccc(F)cc1)N1CCN(CC(O)COc2cccc3[nH]c4ccccc4c23)CC1 (stereo not drawn),–
57 to 62 °C,"OC(COc1cccc2[nH]c3ccccc3c12)CN1CCN(Cc2nccs2)CC1 (stereo not drawn) [Example 28, 1-(9H-carbazol-4-yloxy)-3-{4-[(thiazol-2-yl)methyl]piperazin-1-yl}propan-2-ol]",–
51 to 56 °C,"OC(COc1cccc2[nH]c3ccccc3c12)CN1CCN(CC2CC2)CC1 (stereo not drawn) [Example 29, 1-(9H-carbazol-4-yloxy)-3-[4-(cyclopropylmethyl)piperazin-1-yl]propan-2-ol]",–
68 to 70 °C,"OC(COc1cccc2[nH]c3ccccc3c12)CN1CCN(Cc2ccc(Br)cc2F)CC1 (stereo not drawn) [Example 32, 1-(9H-carbazol-4-yloxy)-3-[4-(4-bromo-2-fluorobenzyl)piperazin-1-yl]propan-2-ol]",–
69 to 71 °C,"CSc1ccc(CN2CCN(CC(O)COc3cccc4[nH]c5ccccc5c34)CC2)cc1 (stereo not drawn) [Example 33, 1-(9H-carbazol-4-yloxy)-3-[4-(4-methylthiobenzyl)piperazin-1-yl]propan-2-ol]",–
140 to 144 °C,"O=C(c1cc([N+](=O)[O-])[nH]n1)N1CCN(CC(O)COc2cccc3[nH]c4ccccc4c23)CC1 (stereo not drawn) [Example 36, 1-(9H-carbazol-4-yloxy)-3-[4-(5-nitro-1H-pyrazole-3-carbonyl)piperazin-1-yl]propan-2-ol]",–
90 to 93 °C,"O=C(/C=C/c1ccc2c(c1)OCO2)N1CCN(CC(O)COc2cccc3[nH]c4ccccc4c23)CC1 (stereo not drawn) [Example 45, 1-(9H-carbazol-4-yloxy)-3-{4-[(2E)-3-(1,3-benzodioxol-5-yl)acryloyl]piperazin-1-yl}propan-2-ol]",–
89 to 92 °C,"O=C(c1cnc2ccccc2n1)N1CCN(CC(O)COc2cccc3[nH]c4ccccc4c23)CC1 (stereo not drawn) [Example 46, 1-(9H-carbazol-4-yloxy)-3-[4-(quinoxaline-2-carbonyl)piperazin-1-yl]propan-2-ol]",–
92 to 95 °C,"N#Cc1ccc(C(=O)N2CCN(CC(O)COc3cccc4[nH]c5ccccc5c34)CC2)cn1 (stereo not drawn) [Example 47, 1-(9H-carbazol-4-yloxy)-3-[4-(6-cyanonicotine-3-carbonyl)piperazin-1-yl]propan-2-ol]",–
70 to 73 °C,"O=C(c1ccc2c(c1)OCO2)N1CCN(CC(O)COc2cccc3[nH]c4ccccc4c23)CC1 (stereo not drawn) [Example 50, 1-(9H-carbazol-4-yloxy)-3-[4-(1,3-benzodioxol-5-ylcarbonyl)piperazin-1-yl]propan-2-ol]",–
112 to 114 °C,O=C(CCc1cc2ccccc2[nH]1)N1CCN(CC(O)COc2cccc3[nH]c4ccccc4c23)CC1 (stereo not drawn) [Example 51],–
78 to 80 °C,"O=C(c1ccc(Br)s1)N1CCN(CC(O)COc2cccc3[nH]c4ccccc4c23)CC1 (stereo not drawn) [Example 56, 3-[4-(5-Bromothiophene-2-carbonyl)piperazin-1-yl]-1-(9H-carbazol-4-yloxy) propan-2-ol]",–
289 to 292 °C,"COc1cccc2sc(NC(=O)CN3CCN(CC(O)COc4cccc5[nH]c6ccccc6c45)CC3)nc12 (stereo not drawn) [Example 61, 2-{4-[3-(9H-carbazol-4-yloxy)-2-hydroxypropyl]-piperazin-1-yl}-N-(4-methoxy-1,3-benzothiazol-2-yl)acetamide]",–
69 to 71 °C,"O=C(CN1CCN(CC(O)COc2cccc3[nH]c4ccccc4c23)CC1)Nc1ccccc1 (stereo not drawn) [Example 62, 2-{4-[3-(9H-carbazol-4-yloxy)-2-hydroxypropyl]-piperazin-1-yl}-N-phenyl acetamide]",–
54 to 57 °C,"COc1ccc(CC(=O)N2CCC(NCC(O)COc3cccc4[nH]c5ccccc5c34)CC2)cc1 (stereo not drawn) [Example 71, 1-(9H-carbazol-4-yloxy)-3-{[1-(4-methoxyphenylacetyl)piperidin-4-yl]amino}propan-2-ol]",–
